Results on four compounds are retold here after ChEMBL document CHEMBL1201862, “PubChem BioAssay data set” (2004).

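Tested at 5 concentrations; 48 h exposure; 96-well plates; endpoints linearly interpolated, else capped at highest concentration. GI50 = concentration required for 50% inhibition of growth.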 The source made the active and inactive calls. No stated cut-off is given here; in the data, active = GI50 up to about 1.1 µM and inactive = higher.

Test systems include SNB-19; SK-OV-3; U-251; SF-539; CCRF-CEM; SK-MEL-2; UACC-62; MOLT-4; COLO 205; LOX IMVI; K562; SK-MEL-28; NCI/ADR-RES; Malme-3M; HCT-116; UO-31; SR; TK-10; HT-29; SK-MEL-5.
Experiment in all cases: NCI anticancer screen, dose series, 48 h

Consider `O=C1CC2(CCC(O)(c3ccccc3)C(C(=O)c3ccccc3)C2)C(=O)c2ccccc2N1` (stereo not given), for which the GI50 with SNB-19 was > 100 µM (inactive); in the test on SK-OV-3 it was > 100 µM (inactive); in the test with U-251, > 100 µM (inactive); with SF-539, > 100 µM (inactive); in the test with CCRF-CEM it was 46.8 µM (inactive); in the test on SK-MEL-2, > 100 µM (inactive). Besides, the GI50 in the test on UACC-62, in the test with MOLT-4, with COLO 205, in the test on LOX IMVI, in the test on K562 and in the test with SK-MEL-28 was > 100 µM (inactive) in each case. The GI50 in the test with NCI/ADR-RES, in the test with Malme-3M, in the test on HCT-116, with UO-31, in the test on SR and in the test on TK-10 was > 100 µM (inactive) each time. Further, the GI50 in the test on HT-29 and with SK-MEL-5 was > 100 µM (inactive) each time.
Regarding `COc1c(C(=O)/C(=N/Nc2ccccc2)C(C)=O)c(O)c(OC)c2occc12`, the GI50 in the test with SNB-19 is 36.1 µM (inactive); in the test with SK-OV-3 it was 65.2 µM (inactive); with U-251 it was 59.7 µM (inactive); in the test with SF-539, > 100 µM (inactive); with CCRF-CEM, 74.1 µM (inactive); in the test on SK-MEL-2 it was 67 µM (inactive). In addition, the GI50 in the test on UACC-62 was 20.5 µM (inactive); in the test with MOLT-4, 48.3 µM (inactive); in the test on COLO 205, 32.2 µM (inactive); with LOX IMVI, 45.9 µM (inactive); with K562 it was 53.5 µM (inactive); in the test with SK-MEL-28 it was > 100 µM (inactive). In addition, the GI50 in the test with NCI/ADR-RES was 56.5 µM (inactive); with Malme-3M, 24.5 µM (inactive); in the test on HCT-116, 34 µM (inactive); in the test on UO-31, 17.2 µM (inactive); with SR, 35.8 µM (inactive); in the test on TK-10, 77.1 µM (inactive). The GI50 in the test on HT-29 is 37.3 µM (inactive); in the test on SK-MEL-5, 13.7 µM (inactive).
Turning to `O=S(=O)(/N=C(\NO)Nc1ccc(Cl)cc1)c1ccc(-c2ccccn2)s1`, the GI50 with SNB-19 is > 100 µM (inactive); with SK-OV-3 it was 56.1 µM (inactive); with U-251, 44.4 µM (inactive); in the test with SF-539, 41.4 µM (inactive); with CCRF-CEM, 42.8 µM (inactive); in the test with SK-MEL-2, 46 µM (inactive). For the same compound, the GI50 with UACC-62 is 44.2 µM (inactive); in the test on MOLT-4 it was 40.1 µM (inactive); in the test on COLO 205, 45.1 µM (inactive); with LOX IMVI, 57.8 µM (inactive); in the test with K562, 50.2 µM (inactive); in the test on SK-MEL-28, 69.2 µM (inactive). The GI50 in the test on NCI/ADR-RES was 30.9 µM (inactive); in the test with Malme-3M, 19.6 µM (inactive); in the test with HCT-116, 38.6 µM (inactive); in the test with UO-31, 80.2 µM (inactive); with SR it was > 100 µM (inactive); in the test on TK-10, 61.5 µM (inactive). Further, the GI50 with HT-29 was 82.8 µM (inactive); in the test on SK-MEL-5, 31.4 µM (inactive).
`CNc1cc2c(c3ccccc13)C(CCl)CN2C(=O)c1cc2cc(OC)c(OC)c(OC)c2[nH]1` (stereo not given): the GI50 is 0.0124 µM (active) in the test on SNB-19; 0.0116 µM (active) in the test on SK-OV-3; 0.00191 µM (active) in the test with U-251; 0.00196 µM (active) in the test with SF-539; 0.00053 µM (active) with CCRF-CEM; 0.00785 µM (active) in the test with SK-MEL-2. In addition, the GI50 with UACC-62 was 0.000588 µM (active); in the test on MOLT-4 it was 0.00053 µM (active); with COLO 205, 0.00227 µM (active); with LOX IMVI, 0.00106 µM (active); in the test on K562, 0.00188 µM (active); in the test with SK-MEL-28, 0.0122 µM (active). Moreover, the GI50 with NCI/ADR-RES was 0.000991 µM (active); with Malme-3M, < 0.01 µM (active); in the test on HCT-116, 0.00106 µM (active); in the test with UO-31, 0.00223 µM (active); in the test with SR it was 0.000275 µM (active); in the test on TK-10, 0.00218 µM (active). The GI50 is 0.0013 µM (active) in the test with HT-29 and 0.00146 µM (active) with SK-MEL-5.
